From ChEMBL document CHEMBL1201862, “PubChem BioAssay data set” (2004) come the findings set out here.

Molecules are shown by their SMILES.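 Test compounds were applied to cells in 96-well plates for 48 hours at 5 doses. Here, GI50 denotes the concentration required for 50% inhibition of growth.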 Calls of active or inactive are those of the source. No stated cut-off is given here; in the data, active = GI50 up to about 1.1 µM and inactive = higher.

Some test systems named below: MOLT-4; HL-60; Malme-3M; SNB-19; ACHN; Hs-578T; HOP-92; SN12C; PC-3; U-251; A549; T47D; UACC-62; OVCAR-8; 786-0; K562; TK-10; SF-539; NCI-H226; NCI-H460.
Holding throughout (test): inhibition of tumour cell growth, NCI panel, 48 h

For the compound `COc1ccc(/N=C/N(C)C)c(C)c1`, the GI50 with MOLT-4 is 2.6 µM (inactive); with HL-60, 0.13 µM (active); in the experiment with Malme-3M, 9.57 µM (inactive); with SNB-19, 21.6 µM (inactive); in the experiment with ACHN, 18.7 µM (inactive); with Hs-578T, 1.52 µM (inactive). The GI50 was 10.5 µM (inactive) with HOP-92; 14.2 µM (inactive) in the experiment on SN12C; 3.17 µM (inactive) in the experiment on PC-3; 4.28 µM (inactive) with U-251; 7.23 µM (inactive) in the experiment with A549; 9.55 µM (inactive) in the experiment with T47D. The GI50 in the experiment with UACC-62 is 7.08 µM (inactive); in the experiment on OVCAR-8, 7.13 µM (inactive); in the experiment on 786-0 it was 13.6 µM (inactive); in the experiment on K562 it was 2.51 µM (inactive); with TK-10 it was 19.8 µM (inactive); with SF-539 it was 22.9 µM (inactive). In addition, the GI50 in the experiment on NCI-H226 was 11.2 µM (inactive).

For `OC(c1cc2ccccc2o1)c1cc2ccccc2s1` (configuration not stated), the GI50 in the experiment with MOLT-4 was > 10 µM (inactive); in the experiment on HL-60, > 10 µM (inactive); in the experiment with SNB-19, > 10 µM (inactive); in the experiment on NCI-H460, > 10 µM (inactive); with ACHN, > 10 µM (inactive); in the experiment on Hs-578T it was 9.53 µM (inactive). The GI50 in the experiment with HOP-92 is > 10 µM (inactive); in the experiment with SN12C, > 10 µM (inactive); in the experiment on PC-3 it was 8.57 µM (inactive); with U-251 it was > 10 µM (inactive); in the experiment on A549, > 10 µM (inactive); in the experiment with T47D it was > 10 µM (inactive). Also, the GI50 was > 10 µM (inactive) with UACC-62; > 10 µM (inactive) in the experiment with OVCAR-8; > 10 µM (inactive) in the experiment on 786-0; 4.57 µM (inactive) with K562; > 10 µM (inactive) with TK-10; > 10 µM (inactive) in the experiment on SF-539. In addition, the GI50 with NCI-H226 was > 10 µM (inactive).

Consider `CC(=O)OC[C@@H]1[C@H]2CC[C@]3(C)[C@@H](OC(C)=O)CC[C@H]3[C@@H]2CC[C@H]1C1(C)SCCS1`, for which the GI50 with MOLT-4, in the experiment on HL-60, in the experiment with Malme-3M, in the experiment with SNB-19, in the experiment on NCI-H460 and with ACHN was > 25 µM (inactive) each time. The GI50 with Hs-578T, in the experiment on HOP-92, with SN12C, in the experiment with PC-3, with U-251 and with A549 was > 25 µM (inactive) each time. In addition, the GI50 in the experiment on T47D, with OVCAR-8, in the experiment with 786-0, with K562, with TK-10 and with SF-539 was > 25 µM (inactive) each time. The GI50 in the experiment with NCI-H226 is > 25 µM (inactive).

Turning to `COc1ccc(/N=N/C(=N/NC(=O)c2ccc(C)cc2)c2ccc(N(CCC#N)CCC#N)cc2OC)cc1`, the GI50 was > 100 µM (inactive) in the experiment on MOLT-4; < 0.01 µM (active) in the experiment with HL-60; > 100 µM (inactive) in the experiment with Malme-3M; > 100 µM (inactive) in the experiment on SNB-19; > 100 µM (inactive) in the experiment on NCI-H460; > 100 µM (inactive) in the experiment on ACHN. For the same compound, the GI50 in the experiment with Hs-578T, in the experiment on HOP-92, in the experiment on SN12C, in the experiment with PC-3, with U-251 and in the experiment on A549 was > 100 µM (inactive) throughout. The GI50 in the experiment with T47D, in the experiment with UACC-62, in the experiment on OVCAR-8, in the experiment with 786-0, with K562 and in the experiment on TK-10 was > 100 µM (inactive) each time. Besides, the GI50 in the experiment with NCI-H226 is > 100 µM (inactive).

`CCOC(=O)/C=C(\C(=O)OCC)n1cc(C)c(=O)n(Cc2cn(CCCCOC(C)=O)nn2)c1=O`: the GI50 in the experiment on MOLT-4 is 2.44 µM (inactive); in the experiment with HL-60, 2.27 µM (inactive); in the experiment with Malme-3M, 2.04 µM (inactive); with SNB-19 it was 20 µM (inactive); in the experiment with NCI-H460, 8.18 µM (inactive); in the experiment on ACHN, 4.28 µM (inactive). Also, the GI50 is 16.3 µM (inactive) in the experiment on Hs-578T; 2.15 µM (inactive) in the experiment on HOP-92; 20.7 µM (inactive) in the experiment with SN12C; 14.3 µM (inactive) in the experiment on PC-3; 15.1 µM (inactive) with U-251; 19.4 µM (inactive) in the experiment on A549. The GI50 in the experiment on T47D was 11.6 µM (inactive); in the experiment on UACC-62 it was 15.9 µM (inactive); in the experiment on OVCAR-8, 8.02 µM (inactive); in the experiment on 786-0, 4.43 µM (inactive); with K562, 2.53 µM (inactive); in the experiment with TK-10 it was 7.38 µM (inactive). For the same compound, the GI50 with SF-539 was 1.95 µM (inactive); in the experiment on NCI-H226 it was 11.3 µM (inactive).

Take `COC1(CCO)CC=CCC1(CCO)OC` (configuration not stated): the GI50 in the experiment with MOLT-4, with HL-60, in the experiment on Malme-3M, in the experiment on SNB-19, with NCI-H460 and with ACHN was > 100 µM (inactive) each time. The GI50 in the experiment on Hs-578T, in the experiment with HOP-92, in the experiment on SN12C, with PC-3, in the experiment on A549 and in the experiment on T47D was > 100 µM (inactive) throughout. Moreover, the GI50 in the experiment with UACC-62, with OVCAR-8, in the experiment on 786-0, in the experiment with K562, in the experiment on TK-10 and in the experiment with NCI-H226 was > 100 µM (inactive) throughout.

On to `COc1ccc2c(c1)nc1n2C(c2c(F)cccc2F)SC1` (configuration not stated), for which the GI50 with MOLT-4 is 35.2 µM (inactive); in the experiment with HL-60, 27.9 µM (inactive); in the experiment on SNB-19, 21.4 µM (inactive); with NCI-H460, 39.4 µM (inactive); with ACHN, > 100 µM (inactive); with Hs-578T, 35.2 µM (inactive). In addition, the GI50 in the experiment with HOP-92 was 76 µM (inactive); in the experiment on SN12C, > 100 µM (inactive); in the experiment on PC-3 it was 27.8 µM (inactive); with U-251, 55.7 µM (inactive); with A549, 34.8 µM (inactive); in the experiment on T47D, 71.6 µM (inactive). For the same compound, the GI50 with UACC-62 was 29.1 µM (inactive); in the experiment with OVCAR-8 it was 83.8 µM (inactive); with 786-0, 48.2 µM (inactive); in the experiment on K562 it was 43.8 µM (inactive); in the experiment on TK-10 it was 94.6 µM (inactive); in the experiment on SF-539, 47.3 µM (inactive). For the same compound, in the experiment on NCI-H226, the GI50 is 62.7 µM (inactive).

Regarding `O=[N+]([O-])c1cc(/N=N/c2c(O)ccc3cc(S(=O)(=O)O)ccc23)c(O)c([N+](=O)[O-])c1`, the GI50 in the experiment with MOLT-4 is 31.5 µM (inactive); in the experiment with HL-60, 11.1 µM (inactive); in the experiment on Malme-3M, > 100 µM (inactive); in the experiment on SNB-19, > 100 µM (inactive); in the experiment with ACHN it was > 100 µM (inactive); with Hs-578T, > 100 µM (inactive). Besides, the GI50 in the experiment with HOP-92 is > 100 µM (inactive); with SN12C it was > 100 µM (inactive); with PC-3, 90.6 µM (inactive); in the experiment on U-251, > 100 µM (inactive); in the experiment on A549, > 100 µM (inactive); in the experiment with T47D it was > 100 µM (inactive). The GI50 in the experiment on UACC-62 was > 100 µM (inactive); in the experiment with OVCAR-8, 35.7 µM (inactive); with 786-0, > 100 µM (inactive); in the experiment on K562 it was > 100 µM (inactive); in the experiment with TK-10 it was > 100 µM (inactive); in the experiment on NCI-H226, 47.9 µM (inactive).

Consider `Cc1nnc2sc(-c3ccc(N)cc3)nn12`, for which the GI50 with MOLT-4, in the experiment with HL-60, in the experiment with Malme-3M, with SNB-19, with NCI-H460 and in the experiment on ACHN was > 100 µM (inactive) in each case. In addition, the GI50 was 89.3 µM (inactive) in the experiment with Hs-578T; > 100 µM (inactive) in the experiment with HOP-92; > 100 µM (inactive) in the experiment on SN12C; > 100 µM (inactive) with PC-3; > 100 µM (inactive) in the experiment on A549; > 100 µM (inactive) in the experiment on T47D. Besides, the GI50 in the experiment with UACC-62, with OVCAR-8, in the experiment on 786-0, with K562, with TK-10 and in the experiment with SF-539 was > 100 µM (inactive) each time. Further, the GI50 in the experiment on NCI-H226 was > 100 µM (inactive).

Turning to `COc1c(O)cc(C(=O)O[C@@H]2Cc3c(O)cc(O)cc3O[C@@H]2c2cc(O)c(O)c(O)c2)cc1O`, the GI50 in the experiment on MOLT-4 is 24.2 µM (inactive); in the experiment on HL-60 it was 19.7 µM (inactive); in the experiment with Malme-3M, > 100 µM (inactive); in the experiment on SNB-19, 21.4 µM (inactive); with NCI-H460, 24.5 µM (inactive); in the experiment with ACHN it was 30.6 µM (inactive). The GI50 with Hs-578T is > 100 µM (inactive); in the experiment with HOP-92, > 100 µM (inactive); in the experiment with SN12C, 19.7 µM (inactive); with PC-3, 68.1 µM (inactive); in the experiment on A549, 23 µM (inactive); in the experiment with T47D, 26.2 µM (inactive). The GI50 was 25.8 µM (inactive) with UACC-62; 23.3 µM (inactive) in the experiment with OVCAR-8; 18.5 µM (inactive) in the experiment on 786-0; 22.8 µM (inactive) in the experiment with K562; > 100 µM (inactive) in the experiment on TK-10.
